Earlier results on one compound are cited in US20050181036A1 (Research Development Foundation, priority 2003, published 2005).

“Also recorded” adds a separate entry of the source.

Regarding `COc1cc(/C=C/C(=O)CC(=O)/C=C/c2ccc(O)c(OC)c2)ccc1O` [Curcumin, diferuloylmethane], the solubility in dimethylsulfoxide result (dimethylsulfoxide) is “soluble”. The solubility in ethanol result (ethanol) is reported as “soluble”. Moreover, under “ether”, the solubility in ether entry is on record as “insoluble”. Also, the solubility in water entry (water) was “insoluble; also recorded: not water-soluble”.
